The source of these data is article PMC5885141 (Molecular imaging and biology : MIB : the official …, 2014).

Assay [1] relates to GRPr and NMB-R. The conditions noted are these: with or without a chelated metal ion; same assay as in Fig. 2; ref [31]; cited from earlier work.
In assay [2] the test system is PC-3 cells. The assay can be described thus: Direct binding assay in PC-3 cells by fluorescence microscopy. In kind it is cell-based, human. The conditions noted are these: 2 μM, 2 h incubation.

IR800 = IRDye800CW

A word on the IC50: it is the concentration at which inhibition is half-maximal. Turning to DO3A-CH2CO-G-ABz4-QWAVGHLM-NH2 [AMBA], the IC50 in assay [1] is 2 to 5 nM.

Turning to “IR800-GSG-t-BBN: IR800-linker-QWAVGHLM-NH2 with linker = GSG (IR800-GSGQWAVGHLM-NH2)”, the “Direct binding to PC-3 cells (fluorescence microscopy)” value in assay [2] was “bound to PC-3 cells to widely different extents”.
